Results from PubChem BioAssay (NCI).
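Where inhibition never reached the appropriate level, the endpoint shown equals the highest concentration tested. Otherwise, values were interpolated linearly from a five-concentration, 48-hour dose response in 96-well plates. GI50 is the concentration that inhibits growth by half. TGI denotes the concentration required for complete inhibition of growth.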

Assays:
Test in all cases: NCI tumour cell line growth inhibition, 48 h
SW-620 colon = test system: SW-620 colon
SNB-75 CNS = test system: SNB-75 CNS
SK-OV-3 ovarian = test system: SK-OV-3 ovarian
RPMI-8226 leukemia = test system: RPMI-8226 leukemia
K-562 leukemia = test system: K-562 leukemia
SK-MEL-28 melanoma = test system: SK-MEL-28 melanoma
OVCAR-8 ovarian = test system: OVCAR-8 ovarian
UACC-62 melanoma = test system: UACC-62 melanoma
SK-MEL-5 melanoma = test system: SK-MEL-5 melanoma
PC-3 prostate = test system: PC-3 prostate

Compound	TGI (SW-620 colon) [µM]	TGI (SNB-75 CNS) [µM]	TGI (SK-OV-3 ovarian) [µM]	TGI (RPMI-8226 leukemia) [µM]	TGI (K-562 leukemia) [µM]	TGI (SK-MEL-28 melanoma) [µM]	TGI (OVCAR-8 ovarian) [µM]	TGI (UACC-62 melanoma) [µM]	TGI (SK-MEL-5 melanoma) [µM]	TGI (PC-3 prostate) [µM]	GI50 (SK-MEL-5 melanoma) [nM]	GI50 (PC-3 prostate) [nM]
CC1(C)/C(=N\NC(N)=O)C2CCC1C2 (configuration not stated)	> 100	> 100	> 100	> 100	> 100	> 100	> 100	> 100	> 100	> 100	–	–
O=[N+]([O-])c1ccc(CN(CCCl)OCCCl)cc1	> 100	> 100	> 100	> 100	> 100	> 100	> 100	> 100	> 100	> 100	–	–
Cc1ccnc2[nH]c(-c3ccc4ccccc4c3)cc(=O)c12	13.9	4.6	5.32	8.05	6.52	14.9	14	9	12.7	6.06	437	1380
CC1CC(OP(=O)(OCc2ccccc2)OCc2ccccc2)[C@@H](OCc2ccccc2)C(OCc2ccccc2)C1OCc1ccccc1 (some centres not stated)	> 100	> 100	> 100	> 100	> 100	> 100	> 100	> 100	> 100	> 100	–	–
